In brackets after ≈: the same amount, converted by molar mass.
Experiments:
[1] = system: HepG2 stably expressing LSS-Luciferase transgene (SREBP transcriptional activity); experiment: Reporter screening assay, SRE-luciferase reporter; type: cell-based; settings: Homo sapiens, 0% FCS media, 24 hours
Description: The effect of Compound 1 on transcriptional activity SREBP was evaluated using an SRE-luciferase reporter construct.
After 24 hours incubation medium cells were treated with various Lovastatin concentrations (10 μM, 5 μM and 1 μM). After 24 hours treatment plates were covered with aluminum foil and frozen at −80° C. overnight. Plates were thawed to room temperature and Luciferase assay was performed. Cells were seeded in a 96 well plate in 10% FCS DMEM media and incubated for 24 hours. Then, they are switched to 0% FCS Media with Compound 1 or DMSO control for another 24 hours, at which point they are assayed for activity of LSS-reporter.
Reagents for performing Luciferase assay were stored at −20° C. To a tube of lyophilized assay substrate was added 1 mL Substrate Solvent and mixed well. The Substrate tube after reconstitution was covered with aluminum foil so as to keep it protected from light. […]
Using a multi-channel pipette, 100 μL Assay Solution (buffer+substrate) was added directly to each sample well in Plate 1, which was incubated for 30 min (plate was covered with aluminum foil). After 30 min incubation, the plate was read for total luminescence. Each well was read for 2 seconds in a plate luminometer. (Microplate reader Envision Microplate reader from Perkin Elmer). Precaution was taken to incubate plate exactly for 30 min prior to reading on the plate reader. […]

[2] = system: SREBP Target Gene in HepG2 cells; experiment: Q-PCR analysis of SREBP target gene expression; type: cell-based; settings: 500 nM, 48 hour
Description: The effect of Compound 1 on the gene expression of HepG2 cells was evaluated.
HepG2 cells (P2) were seeded in 24 well plate (80,000 cells/ well) for RNA extraction and in a 96 well plate (10,000 cells/ well) for Cell Titer Glow (CTG). The media used was DMEM and contained 10% FBS. Compound 1 was evaluated at […] for 48 hours. Two biological replicates per experimental group were evaluated for RNA, and 3 biological replicates per experimental group analyzed with CTG.
For gene analysis RNA was harvested with RNEasy kit and 20-100 ng used to synthesize cDNA with random primers. Quantitative PCR was performed on 1 pg to 100 ng cDNA for the following genes: ACACA, ACLY, FASN, LSS, PNPLA3. Gene expression levels were determined using […] comparing treated to mock or vehicle treated cells as a baseline.

[3] = Kinetic solubility; type: physicochemical; settings: aqueous buffer, kinetic from dmso stock, pH 7.4 buffer, room temperature, 1.0% DMSO
Description: Kinetic Solubility Procedure: A 10 mM stock solution of Compound 1 was prepared in DMSO, then 4 μL of the stock was added to a deep well plate containing 396 μL of pH 7.4 buffer. The sample plate was vortexed at 800 rpm for 24 h on thermomixer at room temperature. The plate was sealed well during the incubation process. The DMSO content in the sample was 1.0%. The concentration of Compound 1 in the final incubation was 100 μM. At the end of the incubation period, the sample plate was centrifuged at 4000 rpm for 10 min and analyzed in LC-UV against a calibration curve (CC).

[4] = In vivo pharmacokinetics, oral; settings: male C57 BL/6 mice
Description: The in vivo pharmacokinetic properties of Compound 1 by both intravenous and oral administration were evaluated in male C57 BL/6 mice. The in vivo pharmacokinetic properties of Compound 2 by both intravenous and oral administration were evaluated in male C57 BL/6 mice for comparison.
Animals were housed in cages with clean bedding. Certified rodent diet was provided. Water was available ad libitum. Environmental controls for the animal room were set to maintain a temperature of 22 to 25° C., humidity of 40-70% RH, and a 12-hour light /12-hour dark cycle. Normal healthy animals certified by the attending veterinarian were selected and acclimatized for minimum three days prior to initiation of study.
Procedure for Blood Withdrawal: Mice were anesthetized using gaseous anesthesia. Blood samples were collected through a capillary, guided in retro-orbital plexus. At each time point, blood samples from 3 mice of each respective group were collected. The blood samples were collected in pre-labeled tubes. 0.2 to 0.3 mL of blood were collected from each mouse. After collection of the blood samples at each time point, the samples were stored on ice prior to centrifugation. Blood samples were centrifuged within 15 minutes to separate plasma. Centrifugations was done at 1540 rcf (5000 rpm) at 4° C. for 10 minutes. The plasma was separated and transferred to pre-labeled micro-centrifuge tubes and promptly frozen at −80±10° C. until bioanalysis was performed. Samples were identified by test item, group, animal number, and collection time point.
To evaluate pharmacokinetic properties of oral delivery, nine male C57 BL/6 mice were administered 10 mg Compound 1/kg animal weight by mouth. The concentration of Compound 1 in the plasma of the animals was evaluated at 0.25, 0.5, 1, 2, 4, 6, 8, and 24 hr by taking blood samples. Compound 2 was similarly administered for comparison.

[5] = treated compared to mock or vehicle treated cells as baseline
[6] = mouse, plasma, oral, dose 10.00 mg/kg (Compound 1), 12.01 mg/kg (Compound 2)

In the case of `CC(C)(O)c1cc(-c2csc(-c3ccc(C(=O)N4CCC(O)CC4)cc3Cl)c2)ccn1` [Compound 1, (3-chloro-4-(4-(2-(2-hydroxypropan-2-yl)pyridin-4-yl)thiophen-2-yl)phenyl)(4-hydroxypiperidin-1-yl)methanone], the EC50 [1] is reported as 0.15 µM, the “Total Gene Average” value ([2]; average of ACACA, ACLY, FASN, LSS, PNPLA3) is reported as 0.467 and the “ACACA gene expression (Q-PCR)” value [2, 5] is reported as 0.648. The “ACLY gene expression (Q-PCR)” value [2, 5] was 0.663, the “FASN gene expression (Q-PCR)” value [2, 5] was 0.542 and the “LSS gene expression (Q-PCR)” value [2, 5] was 0.295. The “PNPLA3 gene expression (Q-PCR)” value [2, 5] was 0.187, the solubility kinetic at 24 h [3] was 37 µM (≈ 16.9 µg/mL) and the bioavailability ([4]; mouse, plasma, oral vs intravenous) was 59.7%. It also gave an AUC(0-inf) [4, 6] of 76.3 µg·h/mL, an AUC(0-t) [4, 6] of 71.2 µg·h/mL and a Cmax [4, 6] of 7.84 µg/mL. It also gave a Tmax [4, 6] of 0.5 h, a half-life [4, 6] of 6.18 h and an MRT last ([4]; mouse, plasma, oral, dose 10.00 mg/kg (Compound 1), 12.01 mg/kg (Compound 2), read-out: MRT0-last) of 7.6 h. It also gave an AUCExtra ([4]; oral, dose 10.00 mg/kg (Compound 1), 12.01 mg/kg (Compound 2)) of 6.77%.
